Assay results from patent US20120121574A1, “ANTIMICROBIAL, ANTIVIRAL, ANTICANCER AND IMMUNOMODULATORY PEPTIDES AND USES THEREFORE” (priority 2010, published 2012).
Where two headings read alike, the source gives them in different places. Where no end group is shown, it is not given here.

What was measured:
[1] = tested on: C. albicans SC5314 strain
Protocol: In vitro activity of N10K against C. albicans SC5314 strain. The candidacidal activity of N10K peptide against C. albicans was assessed by a conventional colony forming unit (CFU) assay as previously described (Polonelli et al., 2003; Manfredi et al., 2005). Briefly, cells of C. albicans SC5314 were incubated at 37° C. for 6 hours (hr) in the presence of N10K at the concentration indicated of 20, 12.5 or 6.25 microgram/ml, or in distilled water as control (C). After incubation, cell suspensions were plated on Sabouraud dextrose agar and incubated at 30° C. for 48 hours when CFU were counted (** P<0.01 for N10K treated versus untreated cells, by t test). […]
The alanine-substituted derivatives (asd), defined according to the position held by the alanine-substituted aminoacid, were tested against C. albicans by a conventional colony forming unit (CFU) as previously described (Polonelli et al., 2003). Briefly, cells of C. albicans SC5314 were incubated at 37° C. for 6 hours in the presence of N10K or N10K asd at different scalar concentrations or distilled water as control. After incubation, cell suspensions were plated on Sabouraud dextrose agar and incubated at 30° C. for 48 hours when CFU were counted. Based on several independent replications, the EC50 value of each peptide was calculated by nonlinear regression analysis using Graph Pad Prism 4.01 software, San Diego, Calif., USA. […]
In vitro microbicidal activity of N10K derivative with 2 amino acid substitutions, or 80% sequence identity with native N10K, namely peptide Seq Id. No. 25 was tested against Candida albicans SC5314 as determined by Colony Forming Unit assay.

[2] = tested on: PBMC; assay: AlamarBlue cell viability assay on PBMC; settings: 1-20 micrograms/ml concentration range, 24 hours
Protocol: In vitro activity of N10K against HIV-1. PBMC from healthy donors were cultured at the concentration of 2×10^6 cells/ml in 96 wells plates with RPMI 1640 supplemented with 10% FBS, 1% glutamine and 20 UI/ml rIL-2 for 24 hr before treatment with N10K, then the peptide was added at increasing concentrations (1, 10 and 20 micrograms/ml) for 24 hours. AlamarBlue was added (10% v/v) and incubated for 4 hours at 37° C. Cells viability was determined by the AlamarBlue Assay (Biosource International, Inc.). The absorbance was measured with an ELISA plate reader (Tecan Sunrise Absorbance Reader) at the double wavelength of 570/595 nm. AlamarBlue added to the complete RPMI1640 medium was used as blank. […] To verify the anti-HIV-1 activity, an in vitro infection applying two different experimental approaches was performed. PBMC from 3 healthy donors were purified by Ficoll gradient centrifugation, mixed in pool and cultured in RPMI 1640 medium (10% FBS, 1% glutamine and 1% penicillin streptomycin). Before infection cells were stimulated for 24 hours with PHA (5 micrograms/ml) and after with rIL-2 (20 UI/ml). […] Viral replication was evaluated measuring the concentration of the p24 antigen in the culture supernatants by the HIV p24 ELISA Ultrasensitive detection kit (PerkinElmer, Inc.). […]

[3] = tested on: B16F10-Nex2 melanoma cells; assay: melanoma cell viability by Trypan Blue exclusion; settings: 1 mM to 0.05 mM, 12 hr
Protocol: (§1) In vitro activity of N10K against B16F10-Nex2, SKme128 and SKme125 melanoma cells. Peptide N10K and the relative scramble peptide (SP) used as negative control were diluted from 1 mM to 0.05 mM in RPMI with 10% FCS and incubated with B16F10-Nex2, SKme128 and SKme125 cells (5×10^3 cells/well) in 100 microliters per well for 12 hr at 37° C. Each peptide was tested in triplicate. After 12 hr, the cytotoxic activities of the peptides were determined by measuring cell viability by Trypan Blue exclusion. A 50% inhibition of cell growth was taken as a comparative index of cytotoxicity (EC50).
as §1, with “T11F” for “N10K”, “microL” for “microliters”, “37 u°” for “37°”

[4] = tested on: C. neoformans 6995 strain; settings: 6 hours 37° C.; multiple experiments
Protocol: After the incubation period, the cell suspensions have been plated on Sabouraud dextrose agar, then incubated at 30° C. and observed for CFU enumeration after 48 hours.

[5] = tested on: U937 cell line; assay: annexine-V/propidium iodide flow cytometry on U937; settings: annexine-V/propidium iodide staining

## NQVSLTCLVK [Peptide N10K, N Q V S L T C L V K]
[1]; 6 hours 37° C., several independent replications, peptide batches of Examples I and II
  EC50: 10 µM
[1]; SC5314, 6 h
  EC50: 1 µM
[2]
  cytotoxicity for PBMC (cell viability): not to be cytotoxic
[3]
  cytotoxic activity (cell viability): showed activity
[4]
  EC50: 5.16 µM
[5]
  induction of apoptotic/necrotic effects: exclude the induction of apoptotic/necrotic effects
